Measured values: ChEMBL document CHEMBL1201862, “PubChem BioAssay data set” (2004)
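96-well plates; 48 h exposure; 5 concentrations. Endpoints by linear interpolation between flanking doses. Not reached: highest tested concentration assigned. GI50 is the concentration that inhibits growth by half.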 Activity calls are given as the source filed them. Cut-off read from the data, not from the text of the source: active = GI50 up to about 1.1 µM and inactive = higher.

Columns and labels:
Assay in all cases: NCI anticancer screen, dose series, 48 h
COLO 205 = tested on: COLO 205
TK-10 = tested on: TK-10
OVCAR-5 = tested on: OVCAR-5
NCI-H522 = tested on: NCI-H522
MDA-N = tested on: MDA-N
SF-268 = tested on: SF-268
SN12C = tested on: SN12C
UO-31 = tested on: UO-31
HCC 2998 = tested on: HCC 2998
HCT-15 = tested on: HCT-15
HOP-92 = tested on: HOP-92
SK-OV-3 = tested on: SK-OV-3
EKVX = tested on: EKVX
SK-MEL-5 = tested on: SK-MEL-5
HCT-116 = tested on: HCT-116
PC-3 = tested on: PC-3
U-251 = tested on: U-251
A549 = tested on: A549
DU-145 = tested on: DU-145
Malme-3M = tested on: Malme-3M
ACHN = tested on: ACHN
A498 = tested on: A498
OVCAR-8 = tested on: OVCAR-8
786-0 = tested on: 786-0
IGROV-1 = tested on: IGROV-1
Hs-578T = tested on: Hs-578T
SF-295 = tested on: SF-295
MDA-MB-231 = tested on: MDA-MB-231
HT-29 = tested on: HT-29
T47D = tested on: T47D
NCI-H23 = tested on: NCI-H23
NCI-H226 = tested on: NCI-H226
NCI-H460 = tested on: NCI-H460
SK-MEL-2 = tested on: SK-MEL-2
BT-549 = tested on: BT-549
LOX IMVI = tested on: LOX IMVI
SW-620 = tested on: SW-620
SNB-75 = tested on: SNB-75
HL-60 = tested on: HL-60
SNB-19 = tested on: SNB-19
UACC-62 = tested on: UACC-62
SK-MEL-28 = tested on: SK-MEL-28
M14 = tested on: M14
RXF 393 = tested on: RXF 393
MCF7 = tested on: MCF7
CCRF-CEM = tested on: CCRF-CEM
UACC-257 = tested on: UACC-257
NCI/ADR-RES = tested on: NCI/ADR-RES
HOP-62 = tested on: HOP-62

Cc1cn(CC2=NCC(C)(C)CN2)c(=O)[nH]c1=O
GI50 (COLO 205): > 100 µM (inactive)
GI50 (TK-10): > 100 µM (inactive)
GI50 (OVCAR-5): > 100 µM (inactive)
GI50 (NCI-H522): > 100 µM (inactive)
GI50 (MDA-N): > 100 µM (inactive)
GI50 (SF-268): > 100 µM (inactive)
GI50 (SN12C): > 100 µM (inactive)
GI50 (UO-31): > 100 µM (inactive)
GI50 (HCC 2998): > 100 µM (inactive)
GI50 (HCT-15): > 100 µM
GI50 (HOP-92): > 100 µM (inactive)
GI50 (SK-OV-3): > 100 µM (inactive)
GI50 (EKVX): > 100 µM (inactive)
GI50 (SK-MEL-5): > 100 µM (inactive)
GI50 (HCT-116): > 100 µM (inactive)
GI50 (PC-3): > 100 µM (inactive)
GI50 (U-251): > 100 µM (inactive)
GI50 (A549): > 100 µM (inactive)
GI50 (DU-145): > 100 µM (inactive)
GI50 (Malme-3M): > 100 µM (inactive)
GI50 (ACHN): > 100 µM (inactive)
GI50 (A498): > 100 µM (inactive)
GI50 (OVCAR-8): > 100 µM (inactive)
GI50 (786-0): > 100 µM (inactive)
GI50 (IGROV-1): > 100 µM (inactive)
GI50 (Hs-578T): > 100 µM (inactive)
GI50 (SF-295): > 100 µM (inactive)
GI50 (MDA-MB-231): > 100 µM (inactive)
GI50 (HT-29): > 100 µM (inactive)
GI50 (T47D): > 100 µM (inactive)
GI50 (NCI-H23): > 100 µM (inactive)
GI50 (NCI-H226): > 100 µM (inactive)
GI50 (NCI-H460): > 100 µM (inactive)
GI50 (SK-MEL-2): > 100 µM (inactive)
GI50 (BT-549): > 100 µM (inactive)
GI50 (LOX IMVI): > 100 µM (inactive)
GI50 (SW-620): > 100 µM (inactive)
GI50 (SNB-75): > 100 µM (inactive)
GI50 (HL-60): > 100 µM (inactive)
GI50 (SNB-19): > 100 µM (inactive)
GI50 (UACC-62): > 100 µM (inactive)
GI50 (SK-MEL-28): > 100 µM (inactive)
GI50 (M14): > 100 µM (inactive)
GI50 (RXF 393): > 100 µM (inactive)
GI50 (MCF7): > 100 µM (inactive)
GI50 (CCRF-CEM): > 100 µM (inactive)
GI50 (UACC-257): > 100 µM (inactive)
GI50 (NCI/ADR-RES): > 100 µM (inactive)
GI50 (HOP-62): > 100 µM (inactive)
